Results as given in US5567704A, “R-enatiomerically pure hydroxylated xanthine compounds to treat baldness” (priority 1995, dated 1996).

Key:
smooth muscle cell = experiment: smooth muscle proliferation stimulated by PDGF and IL-1; assay type: cell-based
Text: CT1501R and PTX were separately added to the cells two hours prior to activation with PDGF and IL-1.

[1] = system: TNF-α release from IL-1α activated PEC; experiment: TNF-α release from IL-1α-activated peritoneal macrophages (ELISA); assay type: cell-based, murine; conditions: Mus musculus, Peritoneal macrophage, 50 ng/ml IL-1α, 24, 48 or 72 hrs, FIG. 20, read-out: inhibition of induced levels of TNF-α
Procedure: Murine peritoneal exudate cell macrophages (PEC) were isolated by perfusion of mouse peritoneum and plated into 96-well trays at 5×10^5 cells per well. Cells were stimulated with 5 μg/ml Salmonella abortus equi -derived endotoxin (LPS; Sigma Chemical Co., L-1887) or […] IL-1α (Genzyme; Cambridge, Mass.) with or without the addition of CT1501R added to the cultures one hour prior to addition of the stimulus. At various times thereafter, supernatants were removed and levels of either TNF-α or IL-1α were assayed using commercial 96-well microtiter immunoassay kits (Genzyme; TNF; Endogen, Boston, Mass.; IL-1α) according to manufacturer's specifications. For the adhesion studies, early passage human umbilical vein endothelial cells (HUVEC) were obtained. from commercial suppliers (Clonetics, San Diego, Calif. or Cell Systems, Seattle, Wash.) and cultured in defined, Hepes buffered, serum free medium (Cell Systems, cat 301-180) supplemented with acidic FGF (Cell Systems cat 401-111). 4000 cells were plated into each well of a 96-well microtiter plate and allowed to incubate for 72 hrs at 37° C. […] After addition of […] Hanks Balanced Salt Solution (HBSS), the microtiter plate was then analyzed on a Millipore Cytofluor fluorescent plate reader (excitation 488 nm; emission 525 nm). […]

TNF-α = experiment: mouse plasma TNF-α ELISA after endotoxin; assay type: in vivo; conditions: for Plasma TNF: LPS + CT-1501R
Procedure: For ELISA measurements of cytokine levels in plasma, blood was collected by retro-orbital or cardiac puncture of anesthetized mice, immediately centrifuged and the EDTA plasma stored at -70° C. Particulate free plasma was thawed on ice and cytokine levels determined utilizing commercial ELISA assays with normal mouse plasma used to generate standard curves. Murine tumor necrosis factor-α and interleukin-1αkits were purchased from Genzyme (Cambridge, Mass.) and Endogen (Boston, Mass.), respectively. Each data point was an average of two ELISA measurements made from EDTA […] pooled from three mice. The data summarized in Table 3 were compiled from two independent experiments; data from Table 4 and 5 were from single experiments of three mice per data point.
Levels of TNF-α, IL-1α and IL-6 were measured in the plasma of mice as a function of time following treatment with S. abortus endotoxin. […] TNF-α levels peaked within 1 hour of treatment of endotoxin (Table 4 and FIG. 6). Treatment of the mice with CT1501R decreased the levels of TNF-α in the EDTA plasma of endotoxin treated mice at all time points measured. In particular, peak levels of TNF-α at 0.5 and 1 hour post endotoxin were decreased 2.5 and 2.6 fold respectively in the CT1501R treated mice.

stromelysin/PUMP-1 = experiment: PUMP-1 activity induced by IL-1; assay type: cell-based; conditions: induced by 100 U/ml of IL-1
Text: Metalloproteases mediate tissue damage such as glomerular diseases of the kidney, joint destruction in arthritis, and lung destruction in emphysema, and play a role in tumor metastases. Three examples of metalloproteases include a 92 kD type V gelatinase induced by TNF, IL-1 and PDGF plus bFGF, a 72 kD type IV collagenase that is usually constitutive and induced by TNF or IL-1, and a stromelysin/PUMP-1 induced by TNF and IL-1. The inventive compounds can inhibit TNF or IL-1 induction of the 92 kD type V gelatinase inducable metalloprotease. Moreover, CT 1501R reduced PUMP- 1 activity induced by 100 U/ml of IL-1 to 15% of its control levels. […] Accordingly, the inventive compounds prevent induction of certain metalloproteases induced by IL-1 or TNF and are not involved with constitutively produced proteases (e.g., 72 kD type IV collagenase) involved in normal tissue remodeling.

## C[C@@H](O)CCCCn1c(=O)c2c(ncn2C)n(C)c1=O [CT1501R, (R)-1-(5-hydroxyhexyl)-3,7-dimethylxanthine]
Smooth muscle cell; PDGF and IL-1, FIG. 4
  activity compared with PTX, smooth muscle cell proliferation: more active than PTX
Smooth muscle cell; PDGF and IL-1, drug added two hours prior, FIG. 4
  inhibition of smooth muscle cell proliferation: inhibited smooth muscle cell proliferation at the higher doses tested
[1]
  inhibition at 250 µM: 50 to 70%
TNF-α; 0.5 hour post endotoxin
  fold decrease of plasma TNF-α: 2.5 fold
TNF-α; 1 hour post endotoxin
  fold decrease of plasma TNF-α: 2.6 fold
TNF-α; 0 hours post LPS
  Plasma TNF: 0 pg/mL
TNF-α; 0.17 hours post LPS
  Plasma TNF: 6 pg/mL
TNF-α; 0.5 hours post LPS
  Plasma TNF: 390 pg/mL
TNF-α; 1 hour post LPS
  Plasma TNF: 1728 pg/mL
TNF-α; 2 hours post LPS
  Plasma TNF: 940 pg/mL
TNF-α; 4 hours post LPS
  Plasma TNF: 400 pg/mL
TNF-α; 6 hours post LPS
  Plasma TNF: 350 pg/mL
stromelysin/PUMP-1
  PUMP-1 activity, % of control levels: 15%
